Series [1] concerns HGF/MET system. In words: Phospho-MET ELISA. Also on record: key: − indicates that the compound failed to significantly augment MET phosphorylation; + indicates maximum potency at or above 100 nM; ++ indicates maximum potency at or above 10 nM; +++ indicates maximum potency at or above 1 nM; ++++ indicates maximum potency at or above 0.1 nM. The settings on record: HEK293 cells; with 1 ng/mL recombinant HGF; 15 minutes; augmentation of MET phosphorylation (pMET ELISA). In kind it is cell-based. As to the method:
Compounds were screened for potency towards the HGF/MET system using phospho-MET (pMET) ELISA kits (Cell Signaling). pMET levels were detected in samples having low (1 ng/mL) and high (10 ng/mL) concentrations of HGF.
HEK293 cells were prepared by passage into 6-well multi-plates and grown at 37° C. at 5% CO2 in DMEM+10% FBS until approximately 90% confluent. Cells were then starved for at least 8 hours in serum-free growth media.
Exemplary compounds were prepared in DMEM+0.1% FBS, diluted and added to treatment media with 1 ng/mL recombinant HGF protein (R&D Systems). Cells were incubated in triplicate at 37° C. and 5% CO2 for 15 minutes. Samples were then treated with 180 μL ice-cold RIPA (radioimmunoprecipitation assay) buffer and cells were lysed on ice for 15 minutes. Lysates were cleared by centrifugation at 16,000-g for 15 minutes and the supernatant was retained. Samples were normalized using a BCA assay of lysates to determine protein concentrations across the samples.
Between 50 and 100 μg total protein lysate was loaded into ELISA wells in pMET Sandwich ELISA kit (Cell Signaling Catalog #7227C), ensuring equal protein load in each well. The ELISA was processed according to manufacturer's instructions. After color developed, absorbance was read on an optical plate reader at 450 nm.
Potency measurements were determined using peak efficacy by scaling test compound dose treatments along a scale of 1-10 between 1 ng/mL and 10 ng/mL HGF doses according to the following formula: […]
where y is the normalized data-point, x is the raw data point, A is the mean HGF at 1 ng/mL, and B is the mean HGF at 10 ng/mL.

The test system of series [2] is MDCK cells. In words: Cell scattering behavior assay. In kind it is cell-based. Also on record: key: − indicates that the compound failed to significantly promote cell scattering behavior; + indicates maximum potency at or above 100 nM; ++ indicates maximum potency at or above 10 nM; +++ indicates maximum potency at or above 1 nM; ++++ indicates maximum potency at or above 0.1 nM. Conditions: with 5 ng/mL HGF, 24 hours, normalized particle count compared to HGF treatment alone. As to the method: MDCK cells were grown under normal conditions and observed to spontaneously form tight colonies as they proliferate. MDCK cells respond to HGF treatment by moving away from each other (scattering), which is quantified to assess the amount of HGF/MET activation in the cell population. In this experiment, MDCK cells were plated in a 96-well format, treated with HGF and exemplary compounds, fluorescently stained, imaged in large fields, and scattering behavior was quantified. Quantification was determined by analyzing the number of continuous groups of cells compared to the total stained area imaged (normalized particle counts).
MDCK cells were plated at low density in black-walled imaging plates and allowed to attach overnight at 37° C. and 5% CO2 in DMEM+10% FBS. Cells were then starved to 2 hours in DMEM without FBS (“starve media”). Samples containing exemplary compounds were prepared in DMEM without FBS and included 5 ng/mL HGF protein (“treatment media”). A control curve was also prepared for each plate using HGF concentrations of 0, 5, 10, and 20 ng/mL. Starve media was replaced with treatment media and cells were incubated for 24 hours at 37° C. and 5% CO2.
After incubation, cells were fixed by replacing treatment media with cold ethanol and incubating for 20 minutes at 4° C. Cells were then rehydrated by washing with PBS and then with stain solution (fluorescent wheat germ agglutinin; WGA488 at 20 μg/mL in PBS). Cells were incubated with stain solution 30 minutes at room temperature after which stain solution was replaced with fresh PBS.
Fields of cells were imaged using an iCyte high content imager in the green wavelength. Images were converted to binary and analyzed for particle size and particle count. For the purpose of analysis, an individual cell touching no other cells or separated colonies of cells were identified as particles, and particle counts were normalized by the total signal area to account for differences in cell number. […] Compound potency was assessed by statistical increase in normalized particle count compared to HGF treatment alone.

Series [3] in a line: Parallel artificial membrane permeability assay (PAMPA). In kind it is in vitro ADME. Conditions: PBS, room temperature for 5 hours, 200 uM in donor well. On the procedure:
Bioavailable drugs must permeate the cellular membranes of the lining of the digestive tract. To estimate the penetrability of exemplary compounds, the in vitro parallel artificial membrane permeability assay (PAMPA) was utilized.
Test compounds must have a standard curve in the final read plate to determine partitioned concentration of each drug. A 6-point standard curve was prepared for each compound from 0 to 200 μM in phosphate-buffered saline (PBS).
Test compound solution (300 μL in PBS) was added to the donor (bottom) well of the PAMPA plate in 5 replicates and PBS vehicle (200 μL) was added to the acceptor (top) wells of appropriate wells to match the loading of the donor plate. The bottom and top of the PAMPA plates were then sandwiched together. The PAMPA plates were then incubated at room temperature for 5 hours. After incubation, 150 μL of donor solution was added to a UV compatible plate containing the corresponding standard curve. 150 μL of acceptor well solution was added adjacent to the corresponding standard curve and donor well samples for that compound. The plate was then read using a UV plate reader.
Permeability and membrane retention were then calculated based on the following formulas:
where: • A=filter area (0.3 cm^2); • VD=donor well volume (0.3 mL); • VA=acceptor well volume (0.2 mL); • t=incubation time (seconds); • CA(t)=compound concentration in acceptor well at time t; • CD(t)=compound concentration in donor well at time t; and
where: • CD(t), VD, CA(t), and VA are as defined for equation 1, and • C0=initial concentration in donor well (200 uM).

For series [4], the system named is hepatocyte (HepG2) cell cultures. In words: Cytotoxicity assay (LDH release). In kind it is cell-based. The settings on record: HepG2 cells, 48 hours, 0.1 to 100 μM. On the procedure:
This experiment was designed to obtain a preliminary assessment of cytotoxicity.
HepG2 cells were plated in 96-well cell culture plates and allowed to attach overnight at 37° C., 5% CO2 in EMEM+10% FBS. Treatments were made in complete media (EMEM+10% FBS) and included a dilution series of test compounds from 0.1 to 100 μM. Known cytotoxin cerivastatin was used as a positive assay control and prepared at a final concentration of 0.5 μM.
Growth media was replaced with treatment media (EMEM+10% FBS containing test compound dissolved in DMSO) and cells were incubated with test compounds for 48 hours. At the end of the incubation period, supernatant media from each well was transferred to a new plate and LDH assay working solution was added. LDH assay solution undergoes a colorimetric reaction in proportion to the amount of lactate dehydrogenase (an intracellular protein that was only found in the media in the presence of lysed cells) in the media. Color reaction was quantified by measurement of absorbance at a wavelength of 490 nm.
The signal range of the assay was determined by no manipulation in a negative control treatment and full lysis of all cells in a lysis control sample. Compounds that increase the level of cytotoxicity more than 20% above negative control samples were considered cytotoxic in this assay.
A general note: LDH leaks from cells whose membrane has failed.

A short description of series [5]: In vitro stability in simulated gastric and intestinal fluids. In kind it is in vitro ADME. Conditions: 37° C. As to the method:
(§1) Bioavailability can be estimated by compound stability when exposed to conditions in the body. As an initial assessment of stability properties in a variety of conditions present in animals, exemplary compounds were tested for stability in a battery of simulated body compartments. Compounds were tested for stability in the following solutions: simulated gastric fluid (SGF: 34.2 mM NaCl, pH 1.2), simulated gastric fluid with the digestive enzyme pepsin (SGF+Enzyme: SGF with 3.2 mg/ml pepsin), simulated intestinal fluid with the mixture of enzymes in porcine pancreatin (SIF+Enzyme: 28.7 mM NaH2PO4, 105.7 mM NaCl, pH 6.8, 10 mg/ml pancreatin), rat plasma, and human plasma.
(§2) Test compounds were incubated at a final concentration of 5 μM in the above solutions at 37° C. with samples removed at the following time points: 0, 1, 2, and 4 hours. Reactions were stopped and prepared for quantification by addition of excess quench solution containing an internal standard (acetonitrile, 200 ng/mL bucetin). Test compound and internal standard in each sample was quantified by LC-MS/MS, and after internal normalization to bucetin, test compound concentration was expressed as a percentage of concentration at the 0-hour time point. Stability in the relevant test solution was then determined by the percent remaining at the 4-hour time point.

A short description of series [6]: In vitro stability in rat plasma. In kind it is in vitro ADME. The settings on record: 5 μM, 37° C. As to the method: as §1, §2
Series [7] in a line: In vitro stability in human plasma. Conditions: 5 μM, 37° C. In kind it is in vitro ADME. As to the method:
as §1, §2

The nature of series [8]: In vivo tissue distribution. Details: species or system Sprague-dawley rats. Conditions: rat, 10 minutes post administration. On the procedure:
The rate of distribution to target tissues is an important feature of therapeutic molecules. Tissue distribution of exemplary compounds was performed in mixed-sex Sprague-dawley rats. Test compounds were delivered via tail vein injection (IV) and tissues were collected at Tmax (10 minutes post administration). Animals were deeply anesthetized with isoflurane and whole blood was collected from the right atrium and processed by centrifugation to produce plasma. Animals were then fully perfused with PBS administered to the left ventricle to prevent blood contamination of tissues.
Tissues were collected and homogenized, and compound content in the target tissue was quantified by LC-MS/MS. Tissue distribution rates were determined by dividing the tissue concentration of compound by the plasma concentration and multiplying by 100.

Bounds are passed on as bounds.

With `CCC(C)CN1CC2N(Cc3ccc(F)cc3)CCC(=O)N2C(C)C1=O` (centres unmarked) [Compound 42], the Potency entry was “++++ (++++ indicates maximum potency at or above 0.1 nM)” in series [1] and “+++ (+++ indicates maximum potency at or above 1 nM)” in series [2]. For the same compound, the Papp at 5 h, 200 uM in series [3] was > 2 ×10⁻⁶ cm/s. Besides, the Cytotoxicity result in series [4] is listed as “++++ (++++ indicates non-toxic at 100 μM)”.
Turning to `CC1C(=O)N(CCC2CCC2)CC2N(Cc3ccc(C(F)(F)F)c(Cl)c3)CCC(=O)N12` (centres unmarked) [Compound 51], the Potency entry in series [1] and in series [2] was “+++ (+++ indicates maximum potency at or above 1 nM)” in each case. The Papp at 5 h, 200 uM in series [3] was < 2 ×10⁻⁶ cm/s. Also, in series [4], the Cytotoxicity entry was “+++ (+++ indicates non-toxic at 10 μM)”.
Regarding `CC1C(=O)N(CC2CCC2)CC2N(C(=O)c3ccc(OC(F)F)cc3)CCC(=O)N12` (centres unmarked) [Compound 14], in series [1], the Potency result is given as “++++ (++++ indicates maximum potency at or above 0.1 nM)”. Besides, in series [3], the Papp at 5 h, 200 uM was > 2 ×10⁻⁶ cm/s. Also, in series [4], the Cytotoxicity entry is recorded as “++++ (++++ indicates non-toxic at 100 μM)”. Further, the “SGF, compound remaining after 4 hours” value in series [5] (simulated gastric fluid pH 1.2, 5 μM) is “++ (++ indicates 40-79% compound remaining after 4 hours)”. The “SGF + Enz, compound remaining after 4 hours” value in series [5] (simulated gastric fluid with 3.2 mg/ml pepsin, 5 μM) is recorded as “++ (++ indicates 40-79% compound remaining after 4 hours)”. The “SIF, compound remaining after 4 hours” value in series [5] (simulated intestinal fluid pH 6.8 with 10 mg/ml pancreatin, 5 μM) is “+++ (+++ indicates 80-99% compound remaining after 4 hours)”. For the same compound, the “Rat Plasma, compound remaining after 4 hours” value in series [6] is given as “+++ (+++ indicates 80-99% compound remaining after 4 hours)”. In addition, the “Human Plasma, compound remaining after 4 hours” value in series [7] is recorded as “+++ (+++ indicates 80-99% compound remaining after 4 hours)”. In addition, the “Tissue Distribution (% Plasma exposure at 10 min post IV dose) Brain” value in series [8] (brain) is “++ (++ indicates distribution between 5 and 39%)”. The “Tissue Distribution (% Plasma exposure at 10 min post IV dose) Cerebellum” value in series [8] (cerebellum) is “++ (++ indicates distribution between 5 and 39%)”. For the same compound, the “Tissue Distribution (% Plasma exposure at 10 min post IV dose) Cortex” value in series [8] (cortex) is “++ (++ indicates distribution between 5 and 39%)”. Further, the “Tissue Distribution (% Plasma exposure at 10 min post IV dose) Hippocampus” value in series [8] (hippocampus) is “++ (++ indicates distribution between 5 and 39%)”. Besides, the “Tissue Distribution (% Plasma exposure at 10 min post IV dose) Sciatic Nerve” value in series [8] (sciatic nerve) was “++ (++ indicates distribution between 5 and 39%)”.
With `CC1C(=O)N(CCC2CCCC2)CC2N(Cc3ccc(C(F)(F)F)c(Cl)c3)CCC(=O)N12` (centres unmarked) [Compound 54], the Potency result in series [1] and in series [2] was “−” throughout. Also, the Papp at 5 h, 200 uM in series [3] was < 2 ×10⁻⁶ cm/s. For the same compound, the Cytotoxicity entry in series [4] is “+++ (+++ indicates non-toxic at 10 μM)”.
In the case of `CCC(C)CN1CC2N(Cc3ccc(OC(F)F)cc3)CCC(=O)N2C(CC(=O)O)C1=O` (centres unmarked) [Compound 49, 2-(1-(4-(difluoromethoxy)benzyl)-8-(2-methylbutyl)-4,7-dioxooctahydro-2H-pyrazino[1,2-a]pyrimidin-6-yl)acetic acid], the Potency entry in series [1] and in series [2] was “++++ (++++ indicates maximum potency at or above 0.1 nM)” throughout. In addition, the Papp at 5 h, 200 uM in series [3] was > 2 ×10⁻⁶ cm/s. For the same compound, in series [4], the Cytotoxicity result is “++++ (++++ indicates non-toxic at 100 μM)”.

What is called Papp is a coefficient for how fast a substance crosses the barrier.
